From US7425557B2, “Inhibitors of glycogen synthase kinase 3” (Novartis Vaccines and Diagnostics, Inc., priority 1998, dated 2008)

Target: human GSK3β (Homo sapiens, UniProt P49841)
Experiment: Screening for GSK3 inhibitory activity using a cell-free assay
Type: biochemical
Details: read-out: IC50 with respect to GSK3
Method in brief: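 Radiometric cell-free assay with recombinant human GSK3β phosphorylating a biotinylated peptide substrate for 3 h. Reactions were stopped with 50 μM ATP/20 mM EDTA and captured on streptavidin plates. Incorporated radiolabel was counted by scintillation and plotted against compound concentration.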

Chain of human GSK3β (P49841 whole entry): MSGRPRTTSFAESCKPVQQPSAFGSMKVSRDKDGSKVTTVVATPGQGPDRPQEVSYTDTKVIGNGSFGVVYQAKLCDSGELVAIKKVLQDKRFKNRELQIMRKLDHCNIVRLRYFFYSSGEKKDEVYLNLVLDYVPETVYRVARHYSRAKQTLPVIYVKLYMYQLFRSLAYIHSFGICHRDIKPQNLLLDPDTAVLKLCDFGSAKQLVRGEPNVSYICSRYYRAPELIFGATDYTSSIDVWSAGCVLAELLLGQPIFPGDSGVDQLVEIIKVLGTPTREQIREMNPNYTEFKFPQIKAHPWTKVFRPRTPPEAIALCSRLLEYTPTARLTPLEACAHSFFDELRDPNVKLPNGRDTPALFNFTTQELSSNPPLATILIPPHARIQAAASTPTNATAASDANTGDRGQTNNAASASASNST

Row | IC50 [µM] | Compound
1 | ≤ 10 | O=C(NCc1cccc(F)c1)c1ccc(-c2ccnc(NCCNc3ccc([N+](=O)[O-])cn3)n2)cc1 [N-[(3-fluorophenyl)methyl]{4-[2-({2-[(5-nitro(2-pyridyl))amino]ethyl}amino)pyrimidin-4-yl]-phenyl}carboxamide]
2 | ≤ 10 | CCOC(=O)c1cnc(NCCNc2ccc(C(=O)O)cn2)nc1-c1ccc(C#N)cc1 [6-[(2-{[4-(4-cyanophenyl)-5-(ethoxycarbonyl)pyrimidin-2-yl]amino}ethyl)amino]pyridine-3-carboxylic acid]
3 | ≤ 10 | CCNC(=O)c1ccc(NCCNc2ncc(C(=O)OCC)c(-c3ccc(C#N)cc3)n2)nc1 [ethyl 4-(4-cyanophenyl)-2-[(2-{[5-(N-ethylcarbamoyl)(2-pyridyl)]amino}-ethyl)amino]pyrimidine-5-carboxylate]
4 | ≤ 1 | CNCC(=O)Nc1cnc(NCCNc2ccc([N+](=O)[O-])c(N)n2)nc1-c1ccc(Cl)cc1Cl [N-[2-({2-[(6-amino-5-nitro(2-pyridyl))amino]ethyl}amino)-4-(2,4-dichlorophenyl)pyrimidin-5-yl]-2-(methylamino)acetamide]
5 | ≤ 1 | N#Cc1ccc(NCCNc2ccc(-n3ccnc3)c(-c3ccc(Cl)cc3Cl)n2)nc1 [6-[(2-{[6-(2,4-dichlorophenyl)-5-imidazolyl-2-pyridyl]amino}ethyl)amino]pyridine-3-carbonitrile]
6 | ≤ 10 | CCOC(=O)c1cnc(NCCc2ccccn2)nc1-c1ccc(OC)cc1 [ethyl 4-(4-methoxyphenyl)-2-[(2-(2-pyridyl)ethyl)amino]pyrimidine-5-carboxylate]
7 | ≤ 1 | COc1cccc(CCNc2nccc(-c3ccc(C(N)=O)cc3)n2)c1OC [4-(2-{[2-(2,3-dimethoxyphenyl)ethyl]amino}pyrimidin-4-yl)benzamide]
8 | ≤ 1 | N#Cc1ccc(-c2nc(NCCNc3ccc([N+](=O)[O-])cn3)ncc2C(=O)OCC(O)CN2CCOCC2)cc1 (centres unmarked) [2-hydroxy-3-morpholin-4-yl-propyl 4-(4-cyanophenyl)-2-({2-[(5-nitro(2-pyridyl))amino]ethyl}amino)pyrimidine-5-carboxylate]
9 | ≤ 10 | COc1cccc(CNc2nccc(-c3ccc(C(N)=O)cc3)n2)c1 [4-(2-{[(3-methoxyphenyl)methyl]-amino}pyrimidin-4-yl)benzamide]
10 | ≤ 10 | CCOC(=O)c1cnc(NCCNc2ccc([N+](=O)[O-])cn2)nc1NCc1cccc(Br)c1 [ethyl 4-{[(3-bromophenyl)methyl]amino}-2-({2-[(5-nitro(2-pyridyl))amino]ethyl}amino)pyrimidine-5-carboxylate]
11 | ≤ 10 | O=[N+]([O-])c1ccc(NCCNc2nccc(-c3cccc(O)c3)n2)nc1 [3-[2-({2-[(5-nitro-2-pyridyl)amino]ethyl}-amino)pyrimidin-4-yl]phenol]
12 | ≤ 1 | COC(=O)c1cnc(NCCNc2ccc([N+](=O)[O-])cn2)nc1-c1ccc(C#N)cc1 [methyl 4-(4-cyanophenyl)-2-({2-[(5-nitro(2-pyridyl))amino]ethyl}amino)pyrimidine-5-carboxylate]
13 | ≤ 10 | CCOC(=O)c1cnc(NCCNc2ccc([N+](=O)[O-])cn2)nc1-c1cccc([N+](=O)[O-])c1 [ethyl 2-({2-[(5-nitro(2-pyridyl))amino]ethyl}amino)-4-(3-nitrophenyl)pyrimidine-5-carboxylate]
14 | ≤ 10 | N#Cc1ccc(NCCNc2ccc([N+](=O)[O-])c(NCc3ccccc3)n2)nc1 [6-{[2-({5-nitro-6-[benzylamino]-2-pyridyl}amino)ethyl]amino}pyridine-3-carbonitrile]
15 | ≤ 10 | COCCNc1nc(NCCNc2ccc([N+](=O)[O-])cn2)ccc1[N+](=O)[O-] [{6-[(2-methoxyethyl)amino]-5-nitro(2-pyridyl)}{2-[(5-nitro(2-pyridyl))amino]ethyl}amine]
16 | ≤ 10 | O=[N+]([O-])c1ccc(NCCNc2nccc(-c3ccc(-c4nc(Cl)c(Cl)[nH]4)cc3)n2)nc1 [{4-[4-(4,5-dichloroimidazol-2-yl)phenyl]-pyrimidin-2-yl}{2-[(5-nitro(2-pyridyl))amino]ethyl}amine]
17 | ≤ 10 | O=C(O)c1c(-c2ccccc2)nc(NCCNc2ccc([N+](=O)[O-])cn2)nc1-c1ccc([N+](=O)[O-])cc1 [2-({2-[(5-nitro(2-pyridyl))amino]ethyl}-amino)-6-(4-nitrophenyl)-4-phenylpyrimidine-5-carboxylic acid]
18 | ≤ 10 | COc1ccc(-c2nc(NCCNc3ccc([N+](=O)[O-])cn3)nc(-c3ccc([N+](=O)[O-])cc3)c2C(=O)O)cc1 [4-(4-methoxyphenyl)-2-({2-[(5-nitro(2-pyridyl))amino]ethyl}-amino)-6-(4-nitrophenyl)pyrimidine-5-carboxylic acid]
19 | ≤ 10 | NC(=O)C(Cc1ccccc1)NC(=O)c1ccc(-c2ccnc(NCCc3ccccn3)n2)cc1 (centres unmarked) [N-(1-carbamoyl-2-phenyl-ethyl)(4-{2-[(2-(2-pyridyl)ethyl)amino]pyrimidin-4-yl}phenyl)carboxamide]
20 | ≤ 1 | CN(C)CCN(CCNc1ccc([N+](=O)[O-])cn1)c1ncc(-n2ccnc2)c(-c2ccc(Cl)cc2Cl)n1 [[4-(2,4-dichlorophenyl)-5-imidazolylpyrimidin-2-yl][2-(dimethylamino)ethyl]{2-[(5-nitro(2-pyridyl))amino]ethyl}amine]
21 | ≤ 1 | O=[N+]([O-])c1ccc(NCCNc2ncc(CN3CCOCC3)c(-c3ccc(Cl)cc3Cl)n2)nc1 [[4-(2,4-dichlorophenyl)-5-(morpholin-4-ylmethyl)pyrimidin-2-yl]{2-[(5-nitro(2-pyridyl))amino]ethyl}amine]
22 | ≤ 10 | CN1CCN(c2ccc(NCCNc3ccc(C#N)cn3)nc2-c2ccc(Cl)cc2Cl)C(=O)C1 [6-[(2-{[6-(2,4-dichlorophenyl)-5-(4-methyl-2-oxo-1-piperazinyl)-2-pyridinyl]amino}ethyl)amino]nicotinonitrile]
23 | ≤ 10 | O=C(NCc1ccc(F)cc1)c1ccc(-c2ccnc(NCCNc3ccc([N+](=O)[O-])cn3)n2)cc1 [N-[(4-fluorophenyl)methyl]{4-[2-({2-[(5-nitro(2-pyridyl))amino]ethyl}amino)pyrimidin-4-yl]phenyl}carboxamide]
24 | ≤ 10 | O=C(NCCc1ccccc1)c1ccc(-c2ccnc(NCCNc3ccc([N+](=O)[O-])cn3)n2)cc1 [{4-[2-({2-[(5-nitro(2-pyridyl))amino]ethyl}amino)-pyrimidin-4-yl]phenyl}-N-(2-phenylethyl)carboxamide]
25 | ≤ 10 | NC(=O)c1ccc(-c2ccnc(NCCc3cccc(Cl)c3)n2)cc1
26 | ≤ 10 | O=[N+]([O-])c1ccc(NCCNc2nccc(NCc3ccccc3)n2)nc1 [[2-({2-[(5-nitro(2-pyridyl))amino]ethyl}amino)pyrimidin-4-yl]benzylamine]
27 | ≤ 10 | Nc1nc(NCCNc2nccc(-c3ccc(C(=O)NCc4ccccc4)cc3)n2)ccc1[N+](=O)[O-] [{4-[2-({2-[(6-amino-5-nitro(2-pyridyl))amino]ethyl}amino)pyrimidin-4-yl]phenyl}-N-benzylcarboxamide]
28 | ≤ 1 | NC(=O)c1ccc(-c2ccnc(NCCNc3ncccn3)n2)cc1 [4-(2-{[2-(pyrimidin-2-ylamino)ethyl]amino}pyrimidin-4-yl)benzamide]

Row | Compound | IC50 [µM]
29 | O=C(O)c1c(-c2ccc([N+](=O)[O-])cc2)nc(NCCNc2ccc([N+](=O)[O-])cn2)nc1-c1ccc([N+](=O)[O-])cc1 [4,6-bis(4-nitrophenyl)-2-({2-[(5-nitro(2-pyridyl))amino]ethyl}amino)pyrimidine-5-carboxylic acid] | ≤ 10
